Experimental data from patent publication US20240217947A1, “Morpholinylquinazoline Compound, Pharmaceutical compositions thereof and Use Thereof” (SHANGHAI YINGLI PHARMACEUTICAL CO., LTD, priority 2022, published 2024).

Experiments:
Type in all cases: biochemical
[1] = molecular target: T1, HDAC6 (Homo sapiens, UniProt Q9UBN7); assay: HDAC6 enzyme activity inhibition IC50 evaluation experiment; conditions: HDAC6 5 nM, acetylated peptide 11 μM, trypsin, fluorescence
T1 sequence (Q9UBN7 1-1215): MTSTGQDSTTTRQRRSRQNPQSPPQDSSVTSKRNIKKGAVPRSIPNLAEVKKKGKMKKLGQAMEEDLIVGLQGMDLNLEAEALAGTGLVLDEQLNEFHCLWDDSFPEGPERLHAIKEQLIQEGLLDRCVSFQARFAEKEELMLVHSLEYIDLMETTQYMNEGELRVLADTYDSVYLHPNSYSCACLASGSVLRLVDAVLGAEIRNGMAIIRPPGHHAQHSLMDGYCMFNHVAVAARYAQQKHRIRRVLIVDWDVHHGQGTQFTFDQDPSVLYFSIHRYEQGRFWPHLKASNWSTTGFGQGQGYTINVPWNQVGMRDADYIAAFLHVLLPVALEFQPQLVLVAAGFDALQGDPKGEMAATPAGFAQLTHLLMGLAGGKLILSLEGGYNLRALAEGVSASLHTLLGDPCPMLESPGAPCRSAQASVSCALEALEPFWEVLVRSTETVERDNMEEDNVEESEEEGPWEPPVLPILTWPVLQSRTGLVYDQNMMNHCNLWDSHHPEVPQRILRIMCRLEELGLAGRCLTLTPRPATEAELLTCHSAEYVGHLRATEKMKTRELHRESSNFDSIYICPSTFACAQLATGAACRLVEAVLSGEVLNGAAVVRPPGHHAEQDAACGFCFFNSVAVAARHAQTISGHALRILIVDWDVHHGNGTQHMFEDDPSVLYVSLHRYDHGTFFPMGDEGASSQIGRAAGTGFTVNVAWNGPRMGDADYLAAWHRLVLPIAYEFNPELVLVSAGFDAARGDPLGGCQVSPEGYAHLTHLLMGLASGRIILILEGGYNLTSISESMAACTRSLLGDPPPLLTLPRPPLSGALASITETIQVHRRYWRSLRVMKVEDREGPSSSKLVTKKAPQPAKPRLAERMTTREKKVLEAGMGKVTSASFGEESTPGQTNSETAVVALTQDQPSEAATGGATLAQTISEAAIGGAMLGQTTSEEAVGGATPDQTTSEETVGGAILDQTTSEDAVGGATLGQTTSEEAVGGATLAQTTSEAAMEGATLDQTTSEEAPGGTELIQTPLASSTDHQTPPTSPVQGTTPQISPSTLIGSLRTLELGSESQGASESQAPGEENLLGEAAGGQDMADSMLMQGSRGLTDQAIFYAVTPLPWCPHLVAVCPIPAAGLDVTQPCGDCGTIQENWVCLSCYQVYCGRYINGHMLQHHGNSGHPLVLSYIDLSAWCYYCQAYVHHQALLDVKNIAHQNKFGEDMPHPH
Method: (§1) Effect Example 2 HDAC1, HDAC2, HDAC3, HDAC6 enzyme activity inhibition IC50 evaluation experiment
(§2) Buffer solution (50 mM Tris 7.5, 0.01% Tween-20, 50 mM NaCl) was prepared according to the kit instructions, and the enzyme solution and substrate solution (acetylated peptide with the addition of trypsin) were prepared using the buffer solution. The test compound samples were dissolved with DMSO and added to the screening system at a certain starting concentration such as 10 μM, 3-fold dilution, while setting up a DMSO control and no-enzyme control. The enzyme reaction system includes: buffer, enzyme [final concentration: HDAC1=10 nM, HDAC2=4 nM, HDAC3=7 nM, HDAC6=5 nM], substrate (acetylated peptide) [final concentration: Peptide(HDAC1)=8 μM, Peptide(HDAC2)=10 μM, Peptide(HDAC3)=5 μM, Peptide(HDAC6)=11 μM], trypsin [final concentration: Trypsin(HDAC1,2,3)=0.05 μM, Trypsin(HDAC6)=0.1 μM], etc. The enzymes and compounds were reacted at room temperature for 15 min. After adding the substrate and Trypsin, centrifugation was performed for 1 min, and the fluorescence signal data (excitation wavelength 355 nM/emission wavelength 460 nm) was read continuously for 60 min using Envision, and the linear reaction segment was selected to obtain the slope and thus calculate the inhibition rate at that concentration. The IC50 value was obtained by fitting the curve using the formula Y=Bottom+(Top-Bottom)/(1+(IC50/X)^HillSlope).

[2] = molecular target: HDAC2 (Homo sapiens, UniProt Q92769); assay: HDAC2 enzyme activity inhibition IC50 evaluation experiment; conditions: HDAC2 4 nM, acetylated peptide 10 μM, trypsin, fluorescence
Method: as §1, §2

[3] = molecular target: HDAC1 (Homo sapiens, UniProt Q13547); assay: HDAC1 enzyme activity inhibition IC50 evaluation experiment; conditions: HDAC1 10 nM, acetylated peptide 8 μM, trypsin, fluorescence
Method: as §1, §2

[4] = molecular target: T2, HDAC8 (Homo sapiens, UniProt Q9BY41); assay: HDAC8 enzyme activity inhibition IC50 evaluation experiment; conditions: HDAC8 10 nM, acetylated peptide 20 μM, 240 min, fluorescence
T2 sequence (Q9BY41 1-377): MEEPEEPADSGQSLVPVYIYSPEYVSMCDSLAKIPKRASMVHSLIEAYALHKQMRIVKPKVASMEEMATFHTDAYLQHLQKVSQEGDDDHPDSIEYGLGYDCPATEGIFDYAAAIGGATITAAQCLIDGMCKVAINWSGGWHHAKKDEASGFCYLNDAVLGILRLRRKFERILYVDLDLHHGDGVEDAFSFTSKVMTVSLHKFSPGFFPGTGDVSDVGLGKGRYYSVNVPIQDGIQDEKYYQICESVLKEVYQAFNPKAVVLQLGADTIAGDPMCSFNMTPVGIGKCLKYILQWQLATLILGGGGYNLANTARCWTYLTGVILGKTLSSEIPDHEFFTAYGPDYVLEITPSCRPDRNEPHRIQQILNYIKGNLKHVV
Method: Effect Example 3 HDAC8, HDAC10 enzyme activity inhibition IC50 evaluation experiment
Prepare buffer solution (HDAC8: 50 mM Tris 8.0, 2.7 mM KCl, 137 mM NaCl, 1 mM MgCl2, 1 mg/mL BSA; HDAC10: 50 mM Tris 7.5, 0.01% Tween-20, 50 mM NaCl, 0.05 mg/mL BSA) according to the kit instructions, prepared Enzyme solution, substrate solution (acetylated peptide) by using buffer. The test compound samples were dissolved in DMSO and was added to the screening system at a certain starting concentration such as 10 μM, 3-fold dilution, while setting up the DMSO control and the no-enzyme control. The enzyme reaction system includes: buffer, enzyme [final concentration: HDAC8=10 nM, HDAC10=10 nM], substrate (acetylated peptide) [final concentration: Peptide(HDAC8)=20 μM, Peptide(HDAC10)=4 μM], etc. The enzymes and compounds were reacted at room temperature for 15 minutes. After adding the substrate peptide the reaction system was reacted at room temperature for 240 min. Trypsin solution was added [final concentration: Trypsin=50p M] and incubation continued for 120 min. The fluorescence signal data (excitation wavelength 355 nM/emission wavelength 460 nm) was read with Envision instrument. Calculate the inhibition rate at this concentration based on the relative fluorescence units (RFU). The IC50 value was obtained by fitting a curve using the formula Y=Bottom+(Top-Bottom)/(1+(IC50/X)^HillSlope).

HDAC1, sequence (Q13547 whole entry, species assumed): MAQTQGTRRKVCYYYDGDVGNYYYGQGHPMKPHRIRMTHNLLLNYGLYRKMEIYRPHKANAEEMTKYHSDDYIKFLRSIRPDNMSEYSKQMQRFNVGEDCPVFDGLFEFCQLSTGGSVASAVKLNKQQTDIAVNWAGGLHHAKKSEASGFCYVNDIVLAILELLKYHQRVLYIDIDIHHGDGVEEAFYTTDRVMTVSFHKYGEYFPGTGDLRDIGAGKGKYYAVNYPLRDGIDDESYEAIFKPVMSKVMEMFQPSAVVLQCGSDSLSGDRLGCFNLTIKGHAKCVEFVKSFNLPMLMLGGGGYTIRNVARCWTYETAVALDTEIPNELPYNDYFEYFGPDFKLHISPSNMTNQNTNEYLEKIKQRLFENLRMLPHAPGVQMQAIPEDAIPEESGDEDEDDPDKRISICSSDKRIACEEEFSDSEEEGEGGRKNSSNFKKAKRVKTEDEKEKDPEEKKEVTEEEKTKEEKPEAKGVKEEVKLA
HDAC2, sequence (Q92769 whole entry, species assumed): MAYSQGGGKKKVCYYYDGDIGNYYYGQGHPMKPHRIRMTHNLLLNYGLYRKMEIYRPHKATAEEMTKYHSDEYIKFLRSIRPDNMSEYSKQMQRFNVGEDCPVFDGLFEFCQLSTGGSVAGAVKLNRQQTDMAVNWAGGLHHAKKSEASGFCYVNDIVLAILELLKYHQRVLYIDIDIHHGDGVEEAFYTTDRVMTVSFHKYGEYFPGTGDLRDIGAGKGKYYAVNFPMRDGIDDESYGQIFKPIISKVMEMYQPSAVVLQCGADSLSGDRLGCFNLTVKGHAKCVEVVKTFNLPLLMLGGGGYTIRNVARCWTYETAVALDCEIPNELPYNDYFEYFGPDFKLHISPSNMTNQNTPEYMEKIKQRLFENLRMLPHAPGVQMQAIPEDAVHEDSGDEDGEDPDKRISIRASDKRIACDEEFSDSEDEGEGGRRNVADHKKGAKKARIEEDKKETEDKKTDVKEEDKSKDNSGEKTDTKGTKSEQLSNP

| IC50 [1] [nM] | IC50 [2] [nM] | IC50 [3] [nM] | IC50 [4] [nM] | SMILES |
| --- | --- | --- | --- | --- |
| 10 to 100 | 10 to 100 | 10 to 100 | – | COc1ncc(-c2nc(N3CCOCC3)nc3c(CN4CCN(c5ncc(C(=O)NO)cn5)CC4)cc(F)cc23)cc1NS(C)(=O)=O [Compound 7] |
| ≤ 10 | ≤ 10 | ≤ 10 | – | COc1ncc(-c2nc(N3CCOCC3)nc3c(OCCCCCCC(=O)NO)cc(F)cc23)cc1NS(C)(=O)=O [Compound 9] |
| 10 to 100 | 100 to 1000 | 100 to 1000 | 100 to 1000 | COc1ncc(-c2nc(N3CCOCC3)nc3c(OC4CCN(c5ncc(C(=O)NO)cc5F)CC4)cc(F)cc23)cc1NS(C)(=O)=O [Compound 30] |
| 100 to 1000 | 10 to 100 | ≤ 10 | 100 to 1000 | COc1ncc(-c2nc(N3CCOCC3)nc3c(OC4CCN(c5ncc(C(=O)NO)cn5)CC4)cc(F)cc23)cc1NS(C)(=O)=O [Compound 39] |
| 10 to 100 | 100 to 1000 | 10 to 100 | 1000 to 10000 | COc1ncc(-c2nc(N3CCOCC3)nc3c(OC4CCN(c5ccc(C(=O)NO)cn5)CC4)cc(F)cc23)cc1NS(C)(=O)=O [Compound 40] |
